Assay results: patent EP0133795B1 (THE McLEAN HOSPITAL CORPORATION, priority 1983, dated 1985)

Key:
CAI pyramidal cells = type: cell-based, Sprague-Dawley rats
Experimental: Transverse slices of hippocampus (350-375 µm thick) were prepared from Sprague-Dawley rats (200-300 g) and transferred onto a nylon net fixed over a 1.5 ml superfusion chamber. The slices were maintained at 32-33°C in a humidified atmosphere of 95%/5% 02/C02. The standard medium consisted of (in mM): NaCl, 125; KCI, 3.5; CaC12,2; MgS04, 1.5; NaH2PO4, 1; NaHC03, 24; and glucose, 10. Low chloride medium was prepared by substituting sodium isethionate for sodium chloride.
Extracellular potentials were recorded with NaCI-fitted micropipettes, and stimulus pulses were applied through bipolar platinum wire electrodes. The various drugs were dissolved in fresh medium (without glucose and phosphate) and applied to the surface of the tissue by pressure ejection from a micropipette, Sakai, Swartz and Woody, (1979).
The inhibitory effectiveness of various compounds was investigated by measuring their ability to suppress the extracellular population spike recorded from the hippocampal CAI pyramidal layer and elicited by stimulation of stratum radiatum axons. The amplitude of this monosynaptic population spike is essentially proportional to the number of pyramidal cells discharging in response to a stimulus volley, Andersen, Bliss and Skrede, (1971).
The various compounds were applied as droplets to the pyramidal layer approximately 75 µm from the recording electrode. The volume of a single drug application was about 300 picoliters. […] The volume ejected from each pipette was calibrated prior to use by measuring the diameter of the ejected droplet and adjusting the duration of the pressure pulse (usually 100-500 msec) until a standard diameter was reached. A constant droplet volume was used throughout the experiments. Where dose-response information was required, several pipettes with different drug concentrations were used.

GABA "receptors" = test: Inhibition of [3H]GABA binding to synaptic membranes from rat cerebellum; settings: [3H]GABA (15 nM); synaptic membrane preparations from rat cerebellum
Experimental: IC50 values were determined by fitting data to linearized transformations, based on including at least two concentrations of antagonists above and below the IC50, with at least triplicate replication per concentration.

[1] = Enzymatic hydrolysis of cholesteryl [14C]GABA ester by rat brain homogenate; type: in vitro ADME; settings: 3 mg/ml, 37°C, S1 fractions of rat brain homogenates (0.8 mg/ml of protein)
Excerpt: Cholesterol hydrolases and esterases are present in mammalian brain tissue.

[2] = Comparative brain/liver uptake of 14C-labeled compounds (Brain Penetration Index)
[3] = 1 hr after administration; TLC
[4] = 50 μmol/kg s.c., 5 min, mice, mean ± S.E.M. (n = 3)

## (3-Cholesteryl)-gamma-Aminobutyrate [Compound 6]
CAI pyramidal cells
  duration of the effect relative to a similar dose of GABA: roughly an order of magnitude longer
  effect after incubation of slices in PMSF (0.5 mM) for about 45 min: significantly reduced
  effect with picrotoxin (10 µM) in the medium or low chloride medium: essentially eliminate the C-G effect
CAI pyramidal cells; after an approximately half-maximal dose
  recovery of the population spike amplitude to 90% of the pre-droplet control value: about 14 min
CAI pyramidal cells; droplets applied to the CAI pyramidal layer
  inhibition of the evoked population spike: dose-dependent inhibition
GABA "receptors"
  IC50: 10 µM
[1]; 10 min, 40 μl aliquots, TLC
  Amount of Unreacted Substrate (6): 53.0 ± 7.0 nmol
[1]; 30 min
  Amount of Unreacted Substrate (6): 43.5 ± 6.3 nmol
[1]; 60 min
  Amount of Unreacted Substrate (6): 34.5 ± 4.9 nmol
[2]; [4]
  (BRAIN): 0.17 ± 0.03 nmol/g
  (LIVER): 0.69 ± .08 nmol/g
  BPI: 25 ± 7%
[2]; 50 μmol/kg s.c., 15 min, mice
  (BRAIN): 0.67 nmol/g
  (LIVER): 1.19 nmol/g
  BPI: 56%
[2]; 50 μmol/kg s.c., 60 min, mice
  (BRAIN): 0.79 nmol/g
  (LIVER): 0.92 nmol/g
  BPI: 86%
[2]; 50 μmol/kg s.c., 180 min, mice
  (BRAIN): 0.60 nmol/g
  (LIVER): 1.89 nmol/g
  BPI: 32%
[2]; 5 min after s.c. injection, relative to GABA
  increase of 5-min BPI over GABA: 25 fold
[2]; Table IX summary, 5-min Brain Penetration Index
  BPI: 25
[2]; s.c., mice
  accumulation of radioactivity in brain persisted post-injection: 45 to 60 min
[3]
  labeled compound present as intact molecules in brain homogenates: about 70%
